According to patent US7825111B2, “Substituted spiroheterocycles” (Janssen Pharmaceutica NV, priority 2006, dated 2010):

Columns and labels:
human V2 receptor [1] = biological target: T1, human V2 receptor (Homo sapiens, UniProt P30518); experiment: In-vitro binding assay, 3H-arginine-8-vasopressin, V2 membranes; details: membrane containing human V2 receptor; for inhibition at 0.2 µM: read-out: V2 (binding) Percent inhibition at 0.2 μM; for IC50: 3H-vasopressin 0.65-0.75 nM
Experimental: (§1) Assay buffer is 50 mM Tris-Cl, 5 mM MgCl2, 0.1% BSA (pH 7.5) containing 5 μg/ml of aprotinin, leupeptin, pepstatin, 50 μg/ml bacitracin, and 1 mM Pefabloc (4-(2-Aminoethyl)-benzenesulfonyl fluoride, hydrochloride manufactured by Roche Diagnostics Corporation, Indianapolis, Ind. and distributed by Boehringer Mannheim). H3 vasopressin is ^3H-arginine-8-vasopressin (NEN Life Sciences, Boston, Mass.; 68.5 Ci/mmol, final concentration in assay is 0.65-0.75 nM). Into wells of 96-well round bottom polypropylene plates are added buffer, test compound, membrane (containing human V1a or V2 receptor), and H3 vasopressin. The reaction plates are allowed to sit at room temperature for one hour. The samples are filtered through Unifilter GF/C plates (PerkinElmer Life Sciences, Boston, Mass.) presoaked in 0.3 polyethyleneimine. The plates are washed 5 times with cold physiological saline containing 0.05% Tween 20. After drying, the bottom of the filter plates are sealed and 0.025 ml of Microscint-20 (Packard Instrument Co, Meriden, Conn.) is added to each filter. The top of the plate is sealed, and the plate is counted. Non-specific binding is determined by the addition of 1.25 μM arginine-8-vasopressin in those wells. % Inh. is calculated as follows: % inhibition=100−100×peak response after drug/peak response before drug

human V2 receptor [2] = biological target: T1, human V2 receptor; experiment: V2 vasopressin receptor functional activity (cAMP accumulation, V2-HEK cells); assay type: cell-based; design: expressed in transfected cells; host or cells: HEK-293; details: inhibition of vasopressin-stimulated cAMP accumulation in V2-HEK cells
Experimental: The V2 receptor is also a G-protein coupled receptor which when activated induces an increase in cAMP turnover. Antagonism against the V2 receptor is determined by measuring cAMP accumulation in transfected HEK-293 cells expressing the human V-2 receptor (V2-HEK cells). Compounds are tested for their ability to block the stimulatory effects of vasopressin on cAMP accumulation. The cell content of cAMP is measured by radioimmunoassay using NEN flashplates.

human V1a receptor [3] = biological target: T2, human V1a receptor (Homo sapiens, UniProt P37288); experiment: In-vitro binding assay, 3H-arginine-8-vasopressin, V1a membranes; details: membrane containing human V1a receptor; for IC50: 3H-vasopressin 0.65-0.75 nM; for inhibition at 0.2 µM: read-out: V1a (binding) Percent inhibition at 0.2 μM
T2 sequence (P37288 whole entry): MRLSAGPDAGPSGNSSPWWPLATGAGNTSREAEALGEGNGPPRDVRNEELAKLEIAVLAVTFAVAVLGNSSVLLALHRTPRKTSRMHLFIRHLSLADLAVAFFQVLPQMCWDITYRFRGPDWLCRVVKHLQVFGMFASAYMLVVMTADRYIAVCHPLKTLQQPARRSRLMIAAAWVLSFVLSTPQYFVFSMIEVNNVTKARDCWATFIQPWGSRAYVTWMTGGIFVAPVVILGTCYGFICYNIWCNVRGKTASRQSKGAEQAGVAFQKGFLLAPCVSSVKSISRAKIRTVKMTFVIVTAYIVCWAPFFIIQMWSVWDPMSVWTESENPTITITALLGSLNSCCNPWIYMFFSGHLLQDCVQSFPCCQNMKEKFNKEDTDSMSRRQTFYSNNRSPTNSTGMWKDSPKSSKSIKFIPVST
Experimental: as §1

human V1a receptor [4] = biological target: T2, human V1a receptor; experiment: V1a vasopressin receptor functional activity (calcium mobilization, FLIPR, V1a-HEK cells); assay type: cell-based; details: inhibition of vasopressin-induced intracellular calcium mobilization in V1a-HEK cells
Experimental: The V1a receptor is a G-protein coupled receptor, which upon activation triggers an increase in intracellular calcium mobilization. To evaluate compounds for their functional V1a receptor activity, HEK-293 cells were transfected with the human V1a receptor (V1a-HEK cells). HEK-293 cells were grown in DMEM (Dulbecco's modified Eagle Media) supplemented with 10% FBS and glutamine. HEK-cells were passed biweekly by trypsinization and seeded into 96 well plates at 33,000 cells per well. HEK-293 cells were transfected with human V1a receptor DNA using DMRIE-C reagent from Life Technologies (Carlsbad, Calif.). Stable lines were generated by selecting cells grown in culture media containing geneticin. After growing in Packard Clear-View black 96 well plates for 4-6 days, V1a-HEK cells were loaded with the calcium-sensitive fluorescence dye, FLUO-3 AM. Changes in intracellular calcium mobilization were measured by quantitating intracellular fluorescence using FLIPR (Fluorometric Imaging Plate Reader; Molecular Devices, Sunnyvale, Calif.). Test compounds were first added to the cells and the resulting changes in fluorescence measured to detect receptor agonistic activity. Five minutes later the cells were challenged with vasopressin to test compounds for their antagonistic activity. Receptor antagonists inhibit the ability of vasopressin to stimulate increases in intracellular fluorescence. IC50's were calculated.

T1 sequence (P30518 whole entry): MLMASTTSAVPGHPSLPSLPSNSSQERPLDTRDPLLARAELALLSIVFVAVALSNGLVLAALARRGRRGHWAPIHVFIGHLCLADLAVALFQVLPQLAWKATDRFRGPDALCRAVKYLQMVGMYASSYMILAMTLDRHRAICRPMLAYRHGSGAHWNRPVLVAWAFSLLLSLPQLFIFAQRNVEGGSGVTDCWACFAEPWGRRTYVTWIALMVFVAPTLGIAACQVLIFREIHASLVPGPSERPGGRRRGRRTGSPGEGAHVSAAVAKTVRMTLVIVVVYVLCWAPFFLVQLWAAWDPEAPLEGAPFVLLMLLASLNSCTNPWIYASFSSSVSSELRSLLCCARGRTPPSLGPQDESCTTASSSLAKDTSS

Compound	inhibition at 0.2 µM (human V2 receptor [1])	IC50 (human V2 receptor [2])	IC50 (human V1a receptor [3])	IC50 (human V1a receptor [4])	IC50 (human V2 receptor [1])	inhibition at 0.2 µM (human V1a receptor [3])
O=C(Nc1ccc(C(=O)N2CCC3(CCCNC3=O)Cc3ccccc32)cc1)c1cc(F)ccc1Cl (stereo not shown) [Compound 7, Benzamide, 2-chloro-N-[4-{(2,3-dihydro-2′-oxospiro[4H-1-benzazepine-4,3-piperidin}-1(5H)-yl)carbonyl}phenyl]-5-fluoro]	63%	0.49 µM	9 nM	0.05 µM		
CN1CCCC2(CCN(C(=O)c3ccc(NC(=O)c4ccccc4-c4ccccc4)cc3)c3ccccc3C2)C1=O (stereo not shown) [Compound 10, [1,1′-Biphenyl]-2-carboxamide, N-[4-[(2,3-dihydro-1′-methyl-2′-oxospiro{4H-1-benzazepine-4,3′-piperidin}-1(5H)-yl)carbonyl]phenyl}-]			47 nM	0.38 µM	50 nM	
CCN1CCCC2(CCN(C(=O)c3ccc(NC(=O)c4ccccc4-c4ccccc4)cc3)c3ccccc3C2)C1=O (stereo not shown) [Compound 11, [1,1′-Biphenyl]-2-carboxamide, N-[4-[(2,3-dihydro-1′-ethyl-2′-oxospiro{4H-1-benzazepine-4,3′-piperidin}-1(5H)-yl)carbonyl]phenyl}-]		0.132 µM	56 nM	0.05 µM	61 nM	
O=C(Nc1ccc(C(=O)N2CCC3(CCNC3=O)Cc3ccccc32)cc1)c1cc(F)ccc1Cl (stereo not shown) [Compound 18, Benzamide, 2-chloro-N-[4-{(2,3-dihydro-2′-oxospiro[4H-1-benzazepine-4,3-pyrrolidin}-1(5H)-yl)carbonyl}phenyl]-5-fluoro]		0.226 µM	8 nM	0.01 µM	150 nM	
CN1CCC2(CCN(C(=O)c3ccc(NC(=O)c4ccccc4-c4ccccc4)cc3)c3ccccc3C2)C1=O (stereo not shown) [Compound 21, [1,1′-Biphenyl]-2-carboxamide, N-[4-[(2,3-dihydro-1′-methyl-2′-oxospiro{4H-1-benzazepine-4,3′-pyrrolidin}-1(5H)-yl)carbonyl]phenyl}-]		0.437 µM	43 nM	0.08 µM	37 nM	
CCOC(=O)CN1CCC2(CCN(C(=O)c3ccc(NC(=O)c4cc(F)ccc4Cl)cc3)c3ccccc3C2)C1=O (stereo not shown) [Compound 22, Spiro{4H-1-benzazepine-4,3′-pyrrolidin}-1′-acetic acid, 1-[{(2-chloro-5-fluorobenzoyl)amino}benzoyl]1,2,3,5-tetrahydro-2′-oxo, ethyl ester]	17%					66%
O=C(O)CN1CCC2(CCN(C(=O)c3ccc(NC(=O)c4cc(F)ccc4Cl)cc3)c3ccccc3C2)C1=O (stereo not shown) [Compound 23, Spiro{4H-1-benzazepine-4,3′-pyrrolidin}-1′-acetic acid, 1-[{(2-chloro-5-fluorobenzoyl)amino}benzoyl]1,2,3,5-tetrahydro-2′-oxo-]	17%					27%
O=C(Nc1ccc(C(=O)N2CCC3(CCNC3=O)Cc3ccccc32)cc1)c1ccccc1-c1ccccc1 (stereo not shown) [Compound 25, [1,1′-Biphenyl]-2-carboxamide, N-[4-[(2,3-dihydro-2′-oxospiro{4H-1-benzazepine-4,3′-pyrrolidin}-1(5H)-yl)carbonyl]phenyl}-]		0.062 µM	7 nM	0.054 µM	18 nM	
O=C(Nc1ccc(C(=O)N2CCC3(CCNC3=O)Cc3ccccc32)cc1)c1ccccc1F (stereo not shown) [Compound 26, Benzamide, 2-fluoro-N-[4-{(2,3-dihydro-2′-oxospiro[4H-1-benzazepine-4,3-pyrrolidin}-1(5H)-yl)carbonyl}phenyl]]			160 nM		230 nM	
Cc1ccc(F)cc1C(=O)Nc1ccc(C(=O)N2CCC3(CCNC3=O)Cc3ccccc32)cc1 (stereo not shown) [Compound 27, Spiro{4H-1-benzazepine-4,3′-pyrrolidin}-[{(2-methyl-5-fluorobenzoyl)amino}benzoyl]1,2,3,5-tetrahydro-2′-oxo-]			15 nM		89 nM	
O=C1CCCC2(CCN(C(=O)c3ccc(NC(=O)c4ccccc4-c4ccccc4)cc3)c3ccccc3C2)N1 (stereo not shown) [Compound 35, [1,1′-Biphenyl]-2-carboxamide, N-[4-[(2,3-dihydro-6′-oxospiro[4H-1-benzazepine-4,2′-piperidin]-1(5H)-yl)carbonyl]phenyl}-]		0.06 µM	45 nM	0.05 µM	230 nM	
O=C(Nc1ccc(C(=O)N2CCC3(CCCNC3=O)Cc3ccccc32)cc1)c1ccccc1F (stereo not shown) [Compound 36, Benzamide, 2-fluoro-N-[4-{(2,3-dihydro-2′-oxospiro[4H-1-benzazepine-4,3-piperidin}-1(5H)-yl)carbonyl}phenyl]]	17%	> 3 µM	27 nM	0.05 µM		
O=C(Nc1ccc(C(=O)N2CCC3(CCCNC3=O)Cc3ccccc32)cc1)c1ccccc1 (stereo not shown) [Compound 37, Benzamide, N-[4-{(2,3-dihydro-2′-oxospiro[4H-1-benzazepine-4,3-piperidin}-1(5H)-yl)carbonyl}phenyl]]	23%		50 nM	0.12 µM		
Cc1ccc(F)cc1C(=O)Nc1ccc(C(=O)N2CCC3(CCNC3=O)Cc3ccccc32)cn1 (stereo not shown) [Compound 38, Spiro{4H-1-benzazepine-4,3′-pyrrolidin}-[{(2-methyl-5-fluorobenzoyl)amino}nicotinoyl]1,2,3,5-tetrahydro-2′-oxo-]		0.036 µM		0.13 µM	93 nM	64%
COc1cc(C(=O)N2CCC3(CCN(C)C3=O)Cc3ccccc32)ccc1NC(=O)c1cc(F)ccc1Cl (stereo not shown) [Compound 39]				0.07 µM	8 nM	58%
